Columns and labels:
[1] = target: T1, Interleukin-1 receptor-associated kinase 4 (Homo sapiens, UniProt Q9NWZ3); assay: IRAK4 Enzymatic Assay: IRAK4 is a human purified recombinant enzyme ([…] IRAK4 hydrolyses ATP, autophosphorylates and phosphorylates a Serine/Threonine generic peptidic substrate (STK: 61ST1BLC from CisBio International based in Bagnols/Cèze FR).Measurement of IRAK-4 inhibition is performed in streptavidin coated 384 well FlashPlate (PerkinElmer #SMP410A). His-TEV-IRAK4 (20 ng/well), ATP (2 μM, [33P]ATP 0.25 μCi/well), STK1-biotin peptide (300 nM) and compounds in DMSO (range of concentrations from 20 μM to 1 nM) or controls (2% DMSO) are incubated for 3 hours at 30° C. in assay buffer: Hepes pH 7.0 50 mM, Fatty acid-free BSA 0.1%, Dithiothreitol DTT 2 mM, MgCl2 10 mM, EGTA 0.5 mM, Tween-20 0.01%, MnCl2 5 mM.Kinase reaction is stopped by addition of EDTA. Supernatant is discarded, plates are washed three times with 150 mM NaCl and radioactivity is then measured in a Microbeta Trilux reader.
T1 sequence (Q9NWZ3 whole entry): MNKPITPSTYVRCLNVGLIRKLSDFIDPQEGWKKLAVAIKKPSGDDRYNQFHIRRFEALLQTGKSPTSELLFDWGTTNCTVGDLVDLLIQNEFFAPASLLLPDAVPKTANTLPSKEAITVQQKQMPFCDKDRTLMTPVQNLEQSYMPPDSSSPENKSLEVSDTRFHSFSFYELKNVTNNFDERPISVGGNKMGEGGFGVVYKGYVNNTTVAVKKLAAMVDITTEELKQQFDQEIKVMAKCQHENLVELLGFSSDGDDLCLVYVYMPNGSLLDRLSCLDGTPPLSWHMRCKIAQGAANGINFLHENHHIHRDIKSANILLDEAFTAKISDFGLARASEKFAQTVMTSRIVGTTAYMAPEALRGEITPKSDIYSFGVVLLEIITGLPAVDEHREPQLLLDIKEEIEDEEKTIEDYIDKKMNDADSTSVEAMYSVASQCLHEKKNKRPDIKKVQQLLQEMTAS

[2] = target: Interleukin-1 receptor-associated kinase 1 (Homo sapiens, UniProt P51617); assay: IRAK1 Enzymatic Assay: IRAK1 is a human purified recombinant enzyme (His-TEV-IRAK1 (194-712)) In this assay, IRAK-1 hydrolyses ATP and autophosphorylates.Measurement of IRAK-1 inhibition is performed in streptavidin coated 384 well FlashPlate (PerkinElmer #SMP410A).His-TEV-IRAK-1 (15 ng/well), ATP (1 μM, [33P]ATP 0.25 μCi/well) and compounds in DMSO (range of concentrations from 20 μM to 1 nM) or controls (2% DMSO) are incubated for 3 hours at 30° C. in assay buffer: Hepes pH 7.0 50 mM, Fatty acid-free BSA 0.1%, Dithiothreitol DTT 2 mM, MgCl2 10 mM, EGTA 0.5 mM, Triton-X-100 0.01%. Kinase reaction is stopped by addition of EDTA. Supernatant is discarded, plates are washed three times with 150 mM NaCl and radioactivity is then measured in a Microbeta Trilux reader.
Interleukin-1 receptor-associated kinase 1, sequence (P51617 whole entry): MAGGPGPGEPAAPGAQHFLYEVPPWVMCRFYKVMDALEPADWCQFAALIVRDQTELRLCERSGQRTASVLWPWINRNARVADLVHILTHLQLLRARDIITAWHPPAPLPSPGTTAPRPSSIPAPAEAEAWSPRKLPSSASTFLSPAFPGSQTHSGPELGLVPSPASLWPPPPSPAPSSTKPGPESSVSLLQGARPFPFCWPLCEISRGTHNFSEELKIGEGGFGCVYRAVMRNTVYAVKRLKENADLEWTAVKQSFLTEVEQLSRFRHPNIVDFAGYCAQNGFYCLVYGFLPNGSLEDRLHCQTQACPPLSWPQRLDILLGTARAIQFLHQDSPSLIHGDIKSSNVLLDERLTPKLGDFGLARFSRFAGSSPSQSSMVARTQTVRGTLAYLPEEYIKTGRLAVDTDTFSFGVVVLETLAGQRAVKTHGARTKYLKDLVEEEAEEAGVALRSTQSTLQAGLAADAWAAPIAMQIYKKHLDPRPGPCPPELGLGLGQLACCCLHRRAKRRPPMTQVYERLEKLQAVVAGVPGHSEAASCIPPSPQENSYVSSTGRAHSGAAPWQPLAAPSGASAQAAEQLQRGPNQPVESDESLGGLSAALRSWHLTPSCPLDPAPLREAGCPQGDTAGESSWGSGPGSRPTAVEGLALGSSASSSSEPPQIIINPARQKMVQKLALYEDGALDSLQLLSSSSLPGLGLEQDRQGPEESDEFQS

With O=C1Nc2nc3ccccc3n2CCn2cc(cn2)-c2ccc(=O)n(n2)Cc2cccc1c2 the IC50 [1] was less than 100 nM and the IC50 [2] was less than 100 nM.
